Assay results reported in patent EP0941220B1, “A PROCESS FOR RECOVERY OF ASCORBIC ACID” (Yissum Research And Development Company Of The Hebrew …, priority 1996, dated 1998).

Test: Temperature sensitivity of carboxylic acid extraction by 0.5 mol/kg Alamine 304 + 10% octanol in kerosene
Type: physicochemical
Conditions: distribution coefficient at 30°C divided by that at 75°C
Excerpt: Referring now to said patents and the teachings thereof, one finds that the process taught therein utilizes the effect of temperature on phosphoric and carboxylic acid extraction by amine-based extractants. The term "amine" as used herein means water-immiscible amine, with a total of at least 20 carbon atoms on its chains. Said patents teach that such amine-based extractants (ABE) lose much of their extraction efficiency upon temperature elevation. This loss of efficiency is referred to as "temperature sensitivity of extraction" (TS). The magnitude of this TS can be represented by the ratio of the distribution coefficient at the lower temperature (DT1) to the distribution coefficient at the higher temperature (DT2). High TS provides for the purification and the concentration of carboxylic acids through altering the temperature between extraction and back-extraction. The acid is extracted from a feed solution by an ABE at low temperature, and is then stripped or back-extracted with water at an elevated temperature. […] This process is referred to herein as the "temperature swing process" (TSP).

TS in Equilibrium with Aqueous Solutions of (mol/kg) 0.05 (0.05 mol/kg equilibrium aqueous phase): 1.7
TS in Equilibrium with Aqueous Solutions of (mol/kg) 0.2 (0.2 mol/kg equilibrium aqueous phase): 1.5
TS in Equilibrium with Aqueous Solutions of (mol/kg) 0.3 (0.3 mol/kg equilibrium aqueous phase): 1.3
TS in Equilibrium with Aqueous Solutions of (mol/kg) 0.475 (0.475 mol/kg equilibrium aqueous phase): 1.1
SMILES: CCC(=O)O [Propionic, Propionic acid]
